Measurements published in ChEMBL document CHEMBL2073971, “Organic anion-transporting polypeptides mediate transport of opioid peptides across blood-brain barrier” (J Pharmacol Exp Ther, 2000).

Columns and labels:
[1] = molecular target: T1, Solute carrier organic anion transporter family member 1A2 (Homo sapiens, UniProt P46721); experiment: TP_TRANSPORTER: inhibition of Deltorphin II uptake (Deltorphin II: 50 uM, DPDPE: 500 uM) in Xenopus laevis oocytes; type: functional, cell-based; details: oocyte
T1 sequence (P46721 whole entry): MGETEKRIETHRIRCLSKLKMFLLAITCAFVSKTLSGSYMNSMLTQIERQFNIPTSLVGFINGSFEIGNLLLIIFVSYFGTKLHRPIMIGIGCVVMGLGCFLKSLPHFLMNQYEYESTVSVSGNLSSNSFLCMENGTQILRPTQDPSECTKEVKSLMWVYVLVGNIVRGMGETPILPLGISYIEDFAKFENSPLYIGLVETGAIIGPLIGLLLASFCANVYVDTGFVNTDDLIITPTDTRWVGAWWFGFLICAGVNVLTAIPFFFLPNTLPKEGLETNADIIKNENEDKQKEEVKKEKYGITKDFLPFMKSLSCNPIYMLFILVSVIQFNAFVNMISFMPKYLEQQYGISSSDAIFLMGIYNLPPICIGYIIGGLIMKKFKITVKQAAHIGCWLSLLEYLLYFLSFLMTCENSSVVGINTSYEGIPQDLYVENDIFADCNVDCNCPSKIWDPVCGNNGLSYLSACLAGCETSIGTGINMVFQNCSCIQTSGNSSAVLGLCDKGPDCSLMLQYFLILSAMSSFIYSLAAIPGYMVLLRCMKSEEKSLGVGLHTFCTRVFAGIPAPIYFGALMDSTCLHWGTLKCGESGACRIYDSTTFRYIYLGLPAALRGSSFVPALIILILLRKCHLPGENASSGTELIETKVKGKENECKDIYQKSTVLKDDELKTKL

[2] = molecular target: T2, Solute carrier organic anion transporter family member 1A2 (OATP1A2) (Homo sapiens, UniProt P46721); experiment: (§1) TP_TRANSPORTER: uptake in Xenopus laevis oocytes; type: functional, cell-based, Oocyte; details: Xenopus laevis oocytes expressing the transporter
T2 sequence (P46721 whole entry): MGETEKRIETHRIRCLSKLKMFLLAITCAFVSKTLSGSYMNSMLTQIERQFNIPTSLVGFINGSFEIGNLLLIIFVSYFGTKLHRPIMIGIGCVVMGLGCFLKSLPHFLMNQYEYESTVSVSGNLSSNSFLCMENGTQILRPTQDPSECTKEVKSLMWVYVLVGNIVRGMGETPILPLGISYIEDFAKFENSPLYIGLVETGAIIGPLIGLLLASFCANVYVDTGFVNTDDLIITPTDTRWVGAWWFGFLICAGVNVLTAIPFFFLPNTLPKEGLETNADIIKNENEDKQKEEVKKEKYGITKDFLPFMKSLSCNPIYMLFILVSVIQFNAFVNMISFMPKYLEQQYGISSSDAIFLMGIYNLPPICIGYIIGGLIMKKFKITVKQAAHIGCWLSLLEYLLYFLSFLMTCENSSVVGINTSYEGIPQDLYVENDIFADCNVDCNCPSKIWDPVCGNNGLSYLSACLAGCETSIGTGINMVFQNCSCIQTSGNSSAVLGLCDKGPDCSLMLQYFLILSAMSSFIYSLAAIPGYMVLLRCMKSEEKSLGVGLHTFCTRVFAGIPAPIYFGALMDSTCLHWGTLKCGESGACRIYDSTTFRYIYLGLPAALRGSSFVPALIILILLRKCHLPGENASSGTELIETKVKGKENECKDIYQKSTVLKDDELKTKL

[3] = molecular target: T1, Solute carrier organic anion transporter family member 1A2; experiment: TP_TRANSPORTER: inhibition of Deltorphin II uptake (Deltorphin II: 50 uM, DAMGO: 200 uM) in Xenopus laevis oocytes; type: functional, cell-based; details: oocyte
[4] = molecular target: T3, Solute carrier organic anion transporter family member 1A4 (Rattus norvegicus, UniProt O35913); experiment: as §1; type: functional, cell-based; details: oocyte
T3 sequence (O35913 whole entry): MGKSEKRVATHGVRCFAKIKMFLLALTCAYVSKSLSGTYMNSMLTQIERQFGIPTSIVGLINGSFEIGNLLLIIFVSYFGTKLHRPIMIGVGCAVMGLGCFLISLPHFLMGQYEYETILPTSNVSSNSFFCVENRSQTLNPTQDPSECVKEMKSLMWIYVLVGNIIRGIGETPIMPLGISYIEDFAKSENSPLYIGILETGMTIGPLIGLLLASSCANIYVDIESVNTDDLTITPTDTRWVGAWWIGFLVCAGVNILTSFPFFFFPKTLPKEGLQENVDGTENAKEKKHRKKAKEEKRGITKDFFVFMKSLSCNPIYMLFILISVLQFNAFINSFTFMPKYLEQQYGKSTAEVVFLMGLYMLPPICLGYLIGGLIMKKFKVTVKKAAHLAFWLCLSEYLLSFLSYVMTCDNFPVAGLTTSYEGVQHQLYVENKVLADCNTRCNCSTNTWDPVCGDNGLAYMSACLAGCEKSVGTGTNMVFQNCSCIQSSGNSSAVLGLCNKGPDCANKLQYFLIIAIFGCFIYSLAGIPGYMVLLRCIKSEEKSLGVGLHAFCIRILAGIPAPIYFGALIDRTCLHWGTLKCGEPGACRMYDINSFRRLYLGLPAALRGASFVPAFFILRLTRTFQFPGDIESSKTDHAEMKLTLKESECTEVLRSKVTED

[5] = molecular target: T1, Solute carrier organic anion transporter family member 1A2; experiment: TP_TRANSPORTER: inhibition of Deltorphin II uptake (Deltorphin II: 50 uM, E1S: 150 uM) in Xenopus laevis oocytes; type: functional, cell-based; details: oocyte
[6] = molecular target: T1, Solute carrier organic anion transporter family member 1A2; experiment: TP_TRANSPORTER: inhibition of Deltorphin II uptake (Deltorphin II: 50 uM, Naloxone: 1500 uM) in Xenopus laevis oocytes; type: functional, cell-based; details: oocyte
[7] = molecular target: T1, Solute carrier organic anion transporter family member 1A2; experiment: TP_TRANSPORTER: inhibition of Deltorphin II uptake (Deltorphin II: 50 uM, Naltrindole: 1500 uM) in Xenopus laevis oocytes; type: functional, cell-based; details: oocyte
[8] = substrate: CC1(C)SSC(C)(C)[C@@H](NC(=O)[C@@H](N)Cc2ccc(O)cc2)C(=O)NCC(=O)N[C@@H](Cc2ccccc2)C(=O)N[C@H]1C(=O)O; experiment: as §1; type: functional, cell-based, Oocyte
[9] = substrate: CC(C)[C@H](NC(=O)[C@H](CCC(=O)O)NC(=O)[C@H](Cc1ccccc1)NC(=O)[C@@H](C)NC(=O)[C@@H](N)Cc1ccc(O)cc1)C(=O)N[C@H](C(=O)NCC(N)=O)C(C)C; experiment: as §1; type: functional, cell-based, Oocyte

CC1(C)SSC(C)(C)[C@@H](NC(=O)[C@@H](N)Cc2ccc(O)cc2)C(=O)NCC(=O)N[C@@H](Cc2ccccc2)C(=O)N[C@H]1C(=O)O was tested, and the Activity [1] was “inhibitor [(at a rough estimate) 50 % of control]” and the Km [2] was 202 µM.

For C[C@@H](NC(=O)[C@@H](N)Cc1ccc(O)cc1)C(=O)NCC(=O)N(C)[C@@H](Cc1ccccc1)C(=O)NCCO [DAMGO], the Activity [3] was “inhibitor [(at a rough estimate) 50 % of control]”.

CC(C)[C@H](NC(=O)[C@H](CCC(=O)O)NC(=O)[C@H](Cc1ccccc1)NC(=O)[C@@H](C)NC(=O)[C@@H](N)Cc1ccc(O)cc1)C(=O)N[C@H](C(=O)NCC(N)=O)C(C)C [DELTORPHIN II] was tested, and the Km [2] was 330 µM and the Activity [4] was “is not a substrate [-]”.

With C[C@]12CC[C@@H]3c4ccc(OS(=O)(=O)O)cc4CC[C@H]3[C@@H]1CCC2=O [ESTRONE SULFURIC ACID] the Activity [5] was “inhibitor [(at a rough estimate) 10 % of control]”.

For C=CCN1CC[C@]23c4c5ccc(O)c4O[C@H]2C(=O)CC[C@@]3(O)[C@H]1C5 [NALOXONE], the Activity [6] was “inhibitor [(at a rough estimate) 20 % of control]”.

Oc1ccc2c3c1O[C@H]1c4[nH]c5ccccc5c4C[C@@]4(O)[C@@H](C2)N(CC2CC2)CC[C@]314 [NALTRINDOLE] was tested, and the Activity [7] was “inhibitor [(at a rough estimate) 10 % of control]”.

B1: Solute carrier organic anion transporter family member 1A1 (Rattus norvegicus) (protein)
chain: MEETEKKIATQEGRLFSKMKVFLLSLTCACLTKSLSGVYMNSMLTQIERQFDISTSVAGLINGSFEIGNLFFIVFVSYFGTKLHRPVVIGIGCVIMGLGCLLMSLPHFFMGRYEYETTISPTGNLSSNSFLCMENRTQTLKPTQDPAECVKEMKSLMWICVMVGNIIRGIGETPIVPLGISYIEDFAKSENSPLYIGILEMGKVAGPIFGLLLGSYCAQIYVDIGSVNTDDLTITPSDTRWVGAWWIGFLVCAGVNILTSIPFFFLPKALPKKGQQENVAVTKDGKVEKYGGQAREENLGITKDFLTFMKRLFCNPIYMLFILTSVLQVNGFINKFTFLPKYLEQQYGKSTAEAIFLIGVYSLPPICLGYLIGGFIMKKFKITVKKAAYLAFCLSVFEYLLFLCHFMLTCDNAAVAGLTTSYKGVQHQLHVESKVLADCNTRCSCSTNTWDPVCGDNGVAYMSACLAGCKKFVGTGTNMVFQDCSCIQSLGNSSAVLGLCKKGPECANRLQYFLILTIIISFIYSLTAIPGYMVFLRCVKSEEKSLGVGLHTFCIRVFAGIPAPVYFGALIDRTCLHWGTLKCGQRGACRMYDINSFRHIYLGLPIALRGSSYLPAFFILILMRKFQFPGDIDSSATDHTEMMLGEKESEHTDVHGSPQVENDGELKTKL
Work on B1 yielded a Km [8] of 48 µM and a Km [9] of 137 µM.

B2: Solute carrier organic anion transporter family member 1A4 (Rattus norvegicus) (protein)
chain: MGKSEKRVATHGVRCFAKIKMFLLALTCAYVSKSLSGTYMNSMLTQIERQFGIPTSIVGLINGSFEIGNLLLIIFVSYFGTKLHRPIMIGVGCAVMGLGCFLISLPHFLMGQYEYETILPTSNVSSNSFFCVENRSQTLNPTQDPSECVKEMKSLMWIYVLVGNIIRGIGETPIMPLGISYIEDFAKSENSPLYIGILETGMTIGPLIGLLLASSCANIYVDIESVNTDDLTITPTDTRWVGAWWIGFLVCAGVNILTSFPFFFFPKTLPKEGLQENVDGTENAKEKKHRKKAKEEKRGITKDFFVFMKSLSCNPIYMLFILISVLQFNAFINSFTFMPKYLEQQYGKSTAEVVFLMGLYMLPPICLGYLIGGLIMKKFKVTVKKAAHLAFWLCLSEYLLSFLSYVMTCDNFPVAGLTTSYEGVQHQLYVENKVLADCNTRCNCSTNTWDPVCGDNGLAYMSACLAGCEKSVGTGTNMVFQNCSCIQSSGNSSAVLGLCNKGPDCANKLQYFLIIAIFGCFIYSLAGIPGYMVLLRCIKSEEKSLGVGLHAFCIRILAGIPAPIYFGALIDRTCLHWGTLKCGEPGACRMYDINSFRRLYLGLPAALRGASFVPAFFILRLTRTFQFPGDIESSKTDHAEMKLTLKESECTEVLRSKVTED
B2 was tested, and the Km [8] was 19 µM.
